Results: patent US8211831B2, “Method to use a synergistic composition” (Riceco, LLC, priority 2005, dated 2012)

Key:
Assay type in all cases: in vivo
[1] = system: broadleaf weeds and sedges; assay: small plot test in Arkansas, weedy rice plot (Example 1); conditions: Clincher SF alone, 15 fluid ounces/acre (0.279 pounds ai/acre)
Excerpt: (§1) Note that the label recommended rate for Clincher® (cyhalofop) SF for controlling grasses in the 2-3 leaf stage is 13.5 fluid ounces/acre (0.251 pounds cyhalofop/acre).

grasses = assay: as above; conditions: Clincher SF alone, 15 fluid ounces/acre (0.279 pounds ai/acre); 2-3 leaf barnyard grass
Excerpt: as §1

[2] = system: broadleaf weeds and sedges; assay: small plot test in Arkansas, weedy rice plot (Example 7); conditions: 12 days after application
Excerpt: (§2) The chemical rates in pounds/acre were:
(§3) The following observations were made 12 days after application.

[3] = system: barnyard grass and Sprangletop (two grass species); assay: as above; conditions: cyhalofop alone, high labeled rate 0.279 pounds/acre; 12 days after application
Excerpt: as §2, §3

Barnyard grass = assay: commercial field application by air in Arkansas, half a weedy rice field (Example 8); conditions: only propanil (Super Wham) at 4 pounds; 7 days after application
Sprangletop = assay: small plot test in Arkansas, weedy rice plot (Example 7); conditions: propanil applied alone, all rates (5, 4, 3 pounds/acre); 12 days after application; 1 to 6 inch Sprangletop
Excerpt: as §2, §3

| Compound | control of the broadleaf weeds and sedges present at the time of application [1] [%] | control of the grasses (grasses) | controlling broadleaf weeds and sedges ([2]; cyhalofop alone, high labeled rate 0.279 pounds/acre) | grass control [3] | barnyard grass control (Barnyard grass) | broadleaf and sedge control ([2]; all rates of propanil applied (5, 4, 3 pounds/acre)) | Sprangletop control (Sprangletop) |
| --- | --- | --- | --- | --- | --- | --- | --- |
| C[C@@H](Oc1ccc(Oc2ccc(C#N)cc2F)cc1)C(=O)O [cyhalofop] | 0 | controlled the grasses | weakness in controlling broadleaf weeds and sedges | excellent grass control | – | – | – |
| CCC(=O)Nc1ccc(Cl)c(Cl)c1 [propanil] | – | – | – | – | poor barnyard grass control | excellent broadleaf and sedge control | lack of Sprangletop control |
